Entries after “also recorded” stand apart in the source; their conditions may differ.
Assays:
Type in all cases: in vivo
[1] = tested on: C57BL/6JRj mice fed a high fat diet; experiment: Oral glucose tolerance test (OGTT) in mice on high fat diet (HFD) treated with OAS
Method: Male C57BL/6JRj mice aged 7 weeks from Janvier Labs were fed a high fat diet (HFD, 45% fat and 20% sucrose) for 12 weeks. […] A first group of 10 mice fed this diet was treated with a daily dose of OAS of 200 mg/kg/d, at a frequency of 5 days per week during the 12 weeks of diet. The OAS used was the product sold as A6262_SIGMA by Sigma-Aldrich (CAS No. 66638-22-0). This group is the HFD+OAS group. […] This is the HFD group. […] An oral glucose tolerance test (OGTT) was performed on each of the three groups of mice. This test consists of monitoring the plasma glucose concentrations for 120 min, after the mice have received an oral glucose load. Thus, at T0 (fasting blood glucose), glucose (2 g/kg) is given orally to the animal. A drop of blood is taken from the tail every 30 minutes for 120 minutes so as to measure the blood glucose level with a strip glucose meter (Accu-Check Perfoma, available in pharmacies). Glucose tolerance is a reflection of the body's ability to regulate the return to a normal blood glucose level after a glucose load. The OGTT was performed at 5 weeks and 9 weeks after the start of the obesogenic diet. The results of this test show the installation of glucose intolerance as early as 5 weeks in the groups of mice on the HFD diet.

C57BL/6JRj mice [2] = experiment: Oral glucose tolerance test (OGTT) in healthy mice after 5-day OAS treatment; details: OAS 1000 mg/kg daily for 5 days, vs control group; for area under the curve of the OGTT: glucose 2.5 g/kg oral
Method: Male C57BL/6JRj mice aged 7 weeks from Janvier Labs were fed with a conventional diet used in pet shops. A first group of 10 mice, not treated with OAS, served as a control group. A second group of 10 mice was treated with a daily dose of OAS at 1000 mg/kg for 5 days. The OAS used was the product sold under the name A6262_SIGMA by the company Sigma-Aldrich (CAS No. 66638-22-0). This group is the OAS treatment group. An oral glucose tolerance test (OGTT) was performed on each of the two groups of mice. This test consists of monitoring the plasma glucose concentrations for 120 min, after the mice have received an oral glucose load. Thus, at T0 (fasting blood glucose level), glucose (2.5 g/kg) is given orally to the animal. A drop of blood is taken from the tail every 15 to 30 minutes for 90 minutes to measure the blood glucose level with a strip glucose meter (Accu-Check Perfoma, available in pharmacies). The OGTT was performed on the fifth day of treatment 2 h after the OAS treatment group received a dose of 500 mg/kg. At the time of the OGTT, the mice of the treatment group also received 500 mg/kg of OAS along with the oral glucose load. The control group received only the oral glucose load.

[3] = Epididymal adipose tissue weight of HFD mice after 12 weeks of diet and treatment; details: after 12 weeks of HFD and OAS 200 mg/kg/d, ****p<0.0001
Method: Male C57BL/6JRj mice aged 7 weeks from Janvier Labs were fed a high fat diet (HFD, 45% fat and 20% sucrose) for 12 weeks. […] A first group of 10 mice fed this diet was treated with a daily dose of OAS of 200 mg/kg/d, at a frequency of 5 days per week during the 12 weeks of diet. The OAS used was the product sold as A6262_SIGMA by Sigma-Aldrich (CAS No. 66638-22-0). This group is the HFD+OAS group. […] This is the HFD group. […] These features are indicative of an establishment of obesity in the mice (FIG. 1).

C57BL/6JRj mice [4] = experiment: Oral glucose tolerance test (OGTT) in healthy mice, single dose of OAS with the glucose load; details: single dose OAS 1000 mg/kg along with glucose 2.5 g/kg oral; vs control group
Method: Male C57BL/6JRj mice aged 7 weeks from Janvier Labs were fed with a conventional diet used in pet shops. A first group of 5 mice, not treated with OAS, served as a control group. A second group of 5 mice was treated with a single dose of OAS at 1000 mg/kg. The OAS used was the product sold under the name A6262 SIGMA by the company Sigma-Aldrich (CAS No. 66638-22-0). This group is the OAS treatment group. An oral glucose tolerance test (OGTT) was performed on each of the two groups of mice. This test consists of monitoring the plasma glucose concentrations for 120 min, after the mice have received an oral glucose load. Thus, at T0 (fasting blood glucose level), glucose (2.5 g/kg) is given orally to the animal. […] In the OGTT test, the OAS treatment group received a dose of 1000 mg/kg of OAS along with the oral glucose load. The control group received only the oral glucose load.

Structure (SMILES): CC(=O)OC[C@H](N)C(=O)O [OAS, O-acetylserine]
- effect on glucose intolerance (OGTT) ([1]; HFD mice, OAS 200 mg/kg/d 5 days per week, after 5 weeks): no visible effect
- glucose intolerance (OGTT) ([1]; HFD mice, OAS 200 mg/kg/d 5 days per week, after 9 weeks): significantly decreases
- difference in area under the curve of the OGTT between control group and HFD+OAS group ([1]; after 5 weeks, ****p<0.0001): significant
- difference in area under the curve of the OGTT between HFD group and HFD+OAS group ([1]; after 9 weeks, *p<0.05): significant
- difference in plasma glucose concentration between control group and HFD+OAS group ([1]; after 9 weeks, from t=60 min after oral glucose load): no longer significant
- difference in plasma glucose concentration between HFD group and HFD+OAS group ([1]; after 9 weeks, t=30 min after oral glucose load, p<0.0001): significant
- fasting blood glucose level (C57BL/6JRj mice [2]; conventional diet): tended to be lower; also recorded: decreases
- blood glucose levels after the oral glucose load (hyperglycemia induced by an oral glucose load) (C57BL/6JRj mice [2]; 15 min, 30 min and 60 min after glucose 2.5 g/kg oral): significantly lower; also recorded: significantly decreases; also recorded: significant
- area under the curve of the OGTT (C57BL/6JRj mice [2]): significant
- area under the curve of the OGTT (C57BL/6JRj mice [2]; listed as O-acetylserine): lower than that of the control group
- difference in epididymal adipose tissue weight between control group and HFD+OAS group [3]: statistically significant
- area under the curve of the OGTT (C57BL/6JRj mice [4]): lower area under the curve than the control group; also recorded: significant
- blood glucose levels at 15 min after the oral glucose load (C57BL/6JRj mice [4]): significantly lower; also recorded: significantly decreases

Reference: patent publication US20240024274A1, “O-ACETYLSERINE FOR THE USE THEREOF IN THE PREVENTION AND TREATMENT OF GLUCOSE INTOLERANCE AND THE ASSOCIATED DISEASES” (INSTITUT NATIONAL DE RECHERCHE POUR L'AGRICULTURE, …, priority 2020, published 2024)
